Test results: patent US20180273528A1 (LES LABORATOIRES SERVIER, priority 2015, published 2018)

Assays:
[1] = target: T1, His-TEV-DYRK1A Kinase domain (aa127-485) (Homo sapiens, UniProt Q13627); experiment: Kinase ADP assay (ADP Hunter), DYRK1A kinase domain; format: biochemical; conditions: 20 μM ATP
T1 construct: His-TEV-DYRK1A Kinase domain (aa127-485); His tag (N); TEV protease cleavage site (N)
Summary of the method: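 Readout is ADP Hunter fluorescence at 590 nm, developed 20 min at 30 °C after the kinase step. That step ran 10 min at 30 °C in Hepes pH 7.4 (10 mM MgCl2, 1 mM EGTA, 0.02% Tween20) containing 20 μM ATP, 40 μM peptide and 20 nM enzyme plus compound.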

DYRK1B = target: T2, DYRK1B (Homo sapiens, UniProt Q9Y463); experiment: Kinase TR-FRET assay, DYRK1B; format: biochemical; conditions: full-length human kinase, 10 μM ATP
T2 construct: full-length human kinases from Carna Biosciences; purchased Carna Biosciences 04-131
Procedure: Inhibition of the enzymatic activity of human kinases was evaluated in a Time-Resolved Fluorescence Resonance Energy Transfer (TR-FRET) assay in 384-well reaction plates. […] Test compounds of the invention were added in reaction buffer at a range of concentrations from 0.1 nM to 30 μM. Following addition of EDTA (Sigma E7889, 10 mM) to stop the reaction, Europium-labelled mouse monoclonal antibody recognizing phospho-Thr232 in MBP (Perkin Elmer TRF0201, 1 nM) was added.

CDK9 = target: T3, CDK9 (Homo sapiens, UniProt P50750); experiment: Kinase TR-FRET assay, CDK9; format: biochemical; conditions: full-length human kinase, 10 μM ATP
T3 construct: full-length human kinases from Carna Biosciences; purchased Carna Biosciences 04-110
Procedure: Inhibition of the enzymatic activity of human kinases was evaluated in a Time-Resolved Fluorescence Resonance Energy Transfer (TR-FRET) assay in 384-well reaction plates. In this assay, full-length human kinases from Carna Biosciences—DYRK1A (NM_001396, ref. 04-130; 2.0 ng/μl), DYRK1B (NM_004714, ref. 04-131; 1.2 ng/p), CLK1 (NM_001162407, ref. 04-126; 0.7 ng/μl), CDK9 (NM_001261, ref. 04-110; 0.9 ng/μl), or GSK3β (NM_001146156, ref. 04-141; 2.0 ng/μl—were incubated for 40 minutes (DYRK1A and DYRK1B) or 100 minutes (CLK1, CDK9 and GSK3β) at room temperature with ATP (Sigma A2383, 10 μM) and a ULight™-labelled human Myelin Basic Protein (MBP) peptide substrate (Perkin Elmer TRF0109, 100 nM) in a reaction buffer composed of 50 mM HEPES pH7.4, 1 mM EGTA, 10 mM MgCl2, 2 mM DTT and 0.01% Tween20. Test compounds of the invention were added in reaction buffer at a range of concentrations from 0.1 nM to 30 μM. Following addition of EDTA (Sigma E7889, 10 mM) to stop the reaction, Europium-labelled mouse monoclonal antibody recognizing phospho-Thr232 in MBP (Perkin Elmer TRF0201, 1 nM) was added. After one hour, the reaction plates were read using a fluorescence reader (EnVision®, Perkin Elmer) at 620 nm and 665 nm (excitation at 340 nm); when the Europium donor fluorophore is excited by light at 340 nm, an energy transfer (620 nm) to the acceptor occurs, which will then emit light at 665 nm.

DYRK1A [2] = target: T4, DYRK1A (Homo sapiens, UniProt Q13627); experiment: Kinase TR-FRET assay, DYRK1A; format: biochemical; set-up: full-length, wild-type human DYRK1A (NM_001396) with an HA tag; expressed in transfected cells; host or cells: human U2-OS osteosarcoma cells, transient transfection of a pcDNA3.1 plasmid; conditions: full-length human kinase, 10 μM ATP
Summary of the method: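 Compounds tested at 0.1 nM to 30 μM in reaction buffer; reaction stopped with 10 mM EDTA. Phosphorylated MBP detected with 1 nM Europium-labelled anti-phospho-Thr232 antibody by TR-FRET.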

DYRK1A [3] = target: T4, DYRK1A; experiment: Cellular DYRK1 autophosphorylation assay in U2-OS cells; format: cell-based; set-up: full-length, wild-type human DYRK1A (NM_001396) with an HA tag; expressed in transfected cells; host or cells: human U2-OS osteosarcoma cells, transient transfection of a pcDNA3.1 plasmid; conditions: U2-OS cells transfected with HA-tagged human DYRK1A, 5 hours exposure; read-out: IC50 (μM) P-Ser520-Dyrk1A -Cell assay
Summary of the method: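 IC50 derived from dose-response curves of phospho-Ser520-DYRK1A (blots normalised to total DYRK1A), quantified by either immunoblotting with chemiluminescence or Mesoscale electrochemiluminescent ELISA. Compounds applied to U2-OS cells across several concentrations for 5 hours.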

T3 sequence (P50750 whole entry): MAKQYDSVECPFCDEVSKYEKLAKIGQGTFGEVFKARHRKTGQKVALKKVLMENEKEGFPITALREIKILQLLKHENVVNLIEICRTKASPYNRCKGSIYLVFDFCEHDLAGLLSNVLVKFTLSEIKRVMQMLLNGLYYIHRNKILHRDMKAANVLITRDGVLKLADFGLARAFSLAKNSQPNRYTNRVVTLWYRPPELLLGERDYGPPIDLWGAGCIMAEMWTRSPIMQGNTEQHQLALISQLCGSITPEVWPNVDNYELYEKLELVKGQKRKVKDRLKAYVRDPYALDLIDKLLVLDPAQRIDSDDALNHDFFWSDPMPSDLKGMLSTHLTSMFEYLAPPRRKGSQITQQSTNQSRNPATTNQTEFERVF
T3 sequence (O60563 whole entry partner): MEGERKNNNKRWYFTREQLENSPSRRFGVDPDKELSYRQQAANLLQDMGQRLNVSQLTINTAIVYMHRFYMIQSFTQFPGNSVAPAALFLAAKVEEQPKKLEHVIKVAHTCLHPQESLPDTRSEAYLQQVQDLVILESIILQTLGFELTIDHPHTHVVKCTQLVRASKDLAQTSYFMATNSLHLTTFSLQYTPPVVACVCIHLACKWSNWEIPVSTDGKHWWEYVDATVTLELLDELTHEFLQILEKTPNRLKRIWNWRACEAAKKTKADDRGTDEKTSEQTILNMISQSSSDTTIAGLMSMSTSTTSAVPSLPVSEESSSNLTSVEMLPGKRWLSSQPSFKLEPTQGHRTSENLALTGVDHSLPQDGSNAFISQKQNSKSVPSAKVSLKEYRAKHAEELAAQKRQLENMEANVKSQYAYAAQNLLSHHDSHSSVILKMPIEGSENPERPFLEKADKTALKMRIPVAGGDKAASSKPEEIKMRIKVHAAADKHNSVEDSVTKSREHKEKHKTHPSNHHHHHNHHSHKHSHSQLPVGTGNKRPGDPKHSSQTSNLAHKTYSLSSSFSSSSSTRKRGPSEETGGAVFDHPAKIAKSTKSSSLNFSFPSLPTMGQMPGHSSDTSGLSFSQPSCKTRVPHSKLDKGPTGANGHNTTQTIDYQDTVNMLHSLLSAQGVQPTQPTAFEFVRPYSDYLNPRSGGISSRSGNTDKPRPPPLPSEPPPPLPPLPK
T2 sequence (Q9Y463 whole entry): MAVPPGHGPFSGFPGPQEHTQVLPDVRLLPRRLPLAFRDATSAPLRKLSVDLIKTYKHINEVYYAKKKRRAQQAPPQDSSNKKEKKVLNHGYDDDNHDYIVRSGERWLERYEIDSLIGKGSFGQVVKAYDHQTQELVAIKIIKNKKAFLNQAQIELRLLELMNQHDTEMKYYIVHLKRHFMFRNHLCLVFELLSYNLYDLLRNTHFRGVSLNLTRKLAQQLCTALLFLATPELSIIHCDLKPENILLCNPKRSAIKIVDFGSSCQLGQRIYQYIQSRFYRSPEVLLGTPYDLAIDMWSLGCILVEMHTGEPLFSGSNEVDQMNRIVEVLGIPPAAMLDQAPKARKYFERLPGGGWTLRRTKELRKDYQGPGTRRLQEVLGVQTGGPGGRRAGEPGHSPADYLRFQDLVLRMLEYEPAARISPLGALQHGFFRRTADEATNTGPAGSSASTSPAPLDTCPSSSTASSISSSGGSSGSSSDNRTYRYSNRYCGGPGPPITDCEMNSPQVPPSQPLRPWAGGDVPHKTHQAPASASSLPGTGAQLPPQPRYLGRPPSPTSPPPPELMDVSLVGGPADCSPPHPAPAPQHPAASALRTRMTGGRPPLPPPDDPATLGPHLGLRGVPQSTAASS

IC50 [1] [µM]	IC50 (DYRK1B) [µM]	IC50 (CDK9) [µM]	IC50 (DYRK1A [2]) [µM]	IC50 (DYRK1A [3]) [µM]	SMILES
0.01	0.004	0.314	0.013	0.08	Cc1nc2ccc(-c3cc(N)nc(N)c3)nc2n1C1CCCC1 [Example 1, 4-(3-cyclopentyl-2-methyl-3H-imidazo[4,5-b]pyridin-5-yl)pyridine-2,6-diamine]
0.01	0.001	0.383	0.008	0.2	CCCn1c(C)nc2ccc(-c3cc(N)nc(N)c3)nc21 [Example 2, 4-(2-methyl-3-propyl-3H-imidazo[4,5-b]pyridin-5-yl)pyridine-2,6-diamine]
0.011	0.008	0.47	0.004	0.11	Cc1nc2ccc(-c3cc(N)nc(N)c3)nc2n1CCC1CCCCC1 [Example 15, 4-[3-(2-cyclohexylethyl)-2-methyl-3H-imidazo[4,5-b]pyridin-5-yl]pyridine-2,6-diamine]
0.012	0.003	1.95	0.003	0.226	Cc1nc2ccc(-c3cc(N)nc(N)c3)nc2n1CCc1ccco1 [Example 19, 4-{3-[2-(furan-2-yl)ethyl]-2-methyl-3H-imidazo[4,5-b]pyridin-5-yl}pyridine-2,6-diamine]
0.01	0.006	1.84	0.007	0.228	Cc1nc2ccc(-c3cc(N)nc(N)c3)nc2n1C(C)(C)C [Example 25, 4-(3-tert-butyl-2-methyl-3H-imidazo[4,5-b]pyridin-5-yl)pyridine-2,6-diamine]
0.011	0.011	3.44	0.004	0.057	Cc1nc2ccc(-c3cc(N)nc(N)c3)nc2n1CCc1ccsc1 [Example 29, 4-{2-methyl-3-[2-(thiophen-3-yl)ethyl]-3H-imidazo[4,5-b]pyridin-5-yl}pyridine-2,6-diamine]
0.01	0.002	1.78	0.009	0.07	Cc1nc2ccc(-c3cc(N)nc(N)c3)nc2n1CC(C)C [Example 31, 4-[2-methyl-3-(2-methylpropyl)-3H-imidazo[4,5-b]pyridin-5-yl]pyridine-2,6-diamine]
0.011	0.011	2.71	0.029	0.131	Cc1nc2ccc(-c3cc(N)nc(N)c3)nc2n1CC1CCOC1 (stereo not drawn) [Example 41, 4-[2-methyl-3-(tetrahydrofuran-3-ylmethyl)-3H-imidazo[4,5-b]pyridin-5-yl]pyridine-2,6-diamine]
0.013	0.013	> 10	0.003	0.08	Cc1nc2ccc(-c3cc(N)nc(N)c3)nc2n1CCc1ccc(Cl)c(Cl)c1 [Example 58, 4-{3-[2-(3,4-dichlorophenyl)ethyl]-2-methyl-3H-imidazo[4,5-b]pyridin-5-yl}pyridine-2,6-diamine]
0.021	0.003	> 10	0.002		Cc1nc2ccc(-c3cc(N)nc(N)c3)nc2n1CCc1ccc(Cl)cc1Cl [Example 59, 4-{3-[2-(2,4-dichlorophenyl)ethyl]-2-methyl-3H-imidazo[4,5-b]pyridin-5-yl}pyridine-2,6-diamine]
0.009	0.004	> 10	0.002	0.155	Cc1nc2ccc(-c3cc(N)nc(N)c3)nc2[nH]1 [Example 61, 4-(2-methyl-3H-imidazo[4,5-b]pyridin-5-yl)pyridine-2,6-diamine]
0.008	0.007	> 10	0.003	0.024	Cc1ccccc1CCn1c(C)nc2ccc(-c3cc(N)nc(N)c3)nc21 [Example 63, 4-{2-methyl-3-[2-(2-methylphenyl)ethyl]-3H-imidazo[4,5-b]pyridin-5-yl}pyridine-2,6-diamine]
0.026	0.03	> 10	0.009		CCCC(C)n1c(C)nc2ccc(-c3cc(N)nc(N)c3)nc21 (stereo not drawn) [Example 64, 4-[2-methyl-3-(pentan-2-yl)-3H-imidazo[4,5-b]pyridin-5-yl]pyridine-2,6-diamine]
0.009	0.012	0.365	0.005	0.072	Cc1nc2ccc(-c3cc(N)nc(N)c3)nc2n1C1CCSCC1 [Example 66, 4-[2-methyl-3-(tetrahydro-2H-thiopyran-4-yl)-3H-imidazo[4,5-b]pyridin-5-yl]pyridine-2,6-diamine]
0.193	0.132	> 10	0.029		CCC(CC)n1c(C)nc2ccc(-c3cc(N)nc(N)c3)nc21 [Example 68, 4-[2-methyl-3-(pentan-3-yl)-3H-imidazo[4,5-b]pyridin-5-yl]pyridine-2,6-diamine]
0.026	0.004	> 10	0.01	0.33	Cc1nc2ccc(-c3cc(N)nc(N)c3)nc2n1[C@H](C)c1ccnc(F)c1 [Example 149, 4-{3-[(1R)-1-(2-fluoropyridin-4-yl)ethyl]-2-methyl-3H-imidazo[4,5-b]pyridin-5-yl}pyridine-2,6-diamine]
0.019	0.014	3.03	0.006	0.28	COCCCn1c(C)nc2ccc(-c3cc(N)nc(N)c3)nc21 [Example 150, 4-[3-(3-methoxypropyl)-2-methyl-3H-imidazo[4,5-b]pyridin-5-yl]pyridine-2,6-diamine]
0.012	0.007	> 10	0.002	0.22	COc1cccc(CCn2c(C)nc3ccc(-c4cc(N)nc(N)c4)nc32)c1 [Example 152, 4-{3-[2-(3-methoxyphenyl)ethyl]-2-methyl-3H-imidazo[4,5-b]pyridin-5-yl}pyridine-2,6-diamine]
0.046	0.003	> 10	0.011		CCCCn1c(C)nc2ccc(-c3cc(N)nc(NCc4ccccc4)c3)nc21 [Example 231, N-benzyl-4-(3-butyl-2-methyl-3H-imidazo[4,5-b]pyridin-5-yl)pyridine-2,6-diamine]
0.207	0.091	> 10	0.013		CCCCn1c(C)nc2ccc(-c3cc(N)nc(NC(=O)Cc4ccccc4)c3)nc21 [Example 235, N-[6-amino-4-(3-butyl-2-methyl-3H-imidazo[4,5-b]pyridin-5-yl)pyridin-2-yl]-2-phenylacetamide]
0.045	0.005	0.718	0.005		Cc1nc2ccc(-c3ccnc(N)c3)nc2n1CCC1CCCCC1 [Example 237, 4-[3-(2-cyclohexylethyl)-2-methyl-3H-imidazo[4,5-b]pyridin-5-yl]pyridin-2-amine]
